Results published in US6277835A, “Method of tumor treatment” (priority 2000, dated 2001).

How the values were obtained:
[1] = system: peripheral white cell counts (bone marrow); test: Peripheral white cell counts; details: day 3; tirapazamine […]; cisplatin 10, 14 and 18 mg/kg
Description: Blood samples were taken from tail veins or by cardiac puncture. No anticoagulants were used. Peripheral white cell counts for individual mice were determined from 20 μl whole blood diluted in 0.280 ml 3% acetic acid. For serum BUN assays, blood from two mice was pooled, coagulated, vortexed, and centrifuged at 830 g for 15 minutes. After the serum was aspirated, BUN values were determined by a commercial clinical veterinary laboratory. Survival to 30 days was also recorded in another experiment.

[2] = system: kidney (blood urea nitrogen); test: Serum BUN assay; format: in vivo, C3H mice; details: day six
From the text: No anticoagulants were used.

[3] = system: RIF-1 cells; test: In vitro RIF-1 clonogenic cell survival under hypoxic conditions; format: cell-based; details: Mus musculus, RIF-1, 1 h, read-out: cell survival
Description: (§1) For the studies on cells in vitro, RIF-1 cells were seeded into 60 mm glass petri dishes in Waymouth's medium supplemented with 15% fetal bovine serum at a concentration of 2×10^4 cells per dish. The experiments were performed 4 to 5 days later when there were approximately 10^6 cell per dish at the time of treatment. The growth medium was then replaced with 2 ml of medium without serum containing tirapazamine at a concentration of either 2 or 4 μg/ml. […] To achieve hypoxia, the dishes were loaded into specially fabricated, prewarmed aluminum gassing chambers which were placed in a shaking table and connected to a gassing manifold comprising a vacuum outlet line and inlet lines for air or nitrogen (+5% CO^2). […] After gassing, the chambers were sealed and incubated for one hour at 37 C.

[4] = system: RIF-1 cells
Description: as §1

[5] = system: FSaIIC Murine Fibrosarcoma; details: cited from earlier work

**Q.** Which results are given for `N.N.[Cl][Pt][Cl]` [cisplatin]?
**A.** leukopenia [1]: mild leukopenia; BUN level ([2]; 10 mg/kg cisplatin alone, similar to untreated): approximately 30 mg/dl; BUN level ([2]; 14 mg/kg cisplatin alone, similar to untreated): approximately 30 mg/dl; BUN level ([2]; 18 mg/kg cisplatin alone): about 80 mg/dl

**Q.** Which results are given for `Nc1n[n+]([O-])c2ccccc2[n+]1[O-]` [tirapazamine, 3-amino-1,2,4-benzotriazine 1,4-dioxide]?
**A.** viability at 2 µg/mL [3]: 30%; viability at 4 µg/mL [3]: 0.9%; cytotoxicity under aerobic conditions [4]: no cytotoxicity; effect on tumor cells with carmustine ([5]; SR 4233 just before single-dose carmustine): marked dose enhancement leading to synergistic cytotoxic effects on tumor cells; effect on tumor cells with cyclophosphamide ([5]; SR 4233 just before single-dose cyclophosphamide): marked dose enhancement leading to synergistic cytotoxic effects on tumor cells; effect on tumor cells with melphalan ([5]; SR 4233 just before single-dose melphalan): marked dose enhancement leading to synergistic cytotoxic effects on tumor cells; effect with cisplatin ([5]; SR 4233 just prior to single-dose cisplatin): additive effect, except at the highest dose level of cisplatin
